Source: patent US7973213B2, “Antibiotic resistance conferred by a plant ABC transporter gene when expressed in transgenic plants” (University of Tennessee Research Foundation, priority 2005, dated 2011)

Tests used:
[1] = tested on: transgenic tobacco events 28 and 30; test: Resistance of Atwbc19 transgenic tobacco events to other antibiotics; type: in vivo, Nicotiana tabacum; settings: Atwbc19-only transgenic events 28 and 30
[2] = tested on: Escherichia coli DH5α; test: Kanamycin resistance of transformed E. coli in 96-well microtiter plates (optical density 630 nm); type: cell-based; settings: E. coli transformed with pKS-ABC, IPTG 1 mM, 24 hr
Experimental: Escherichia coli DH5α was obtained from stock strains available within our lab. All strains were cultured on LB media. Three plasmids were used in this study. pKS-ABC contains the Atwbc19 gene under the control of the lacZ promoter in pBluescript II SK+; pKS-nptII contains the nptII gene with the lacZ promoter in pBluescript II SK+; and pKS is pBluescript II SK+ with no inserted genes as a control. The microorganisms were maintained in glycerol stocks and stored at −80° C. Working cultures were obtained by inoculating a loopful of culture into 50 ml LB broth supplemented with ampicillin (100 mg/l) and incubated at 37° C. for 24 hr.
E. coli DH5α were transformed with pKS, pKS-ABC, and pKS-nptII by freeze/thaw method (Hanahan 1983). The gram-negative […] Escherichia coli DH5α were used in all transformations. For selection of transformants, aliquots of bacteria were spread onto solidified LB medium supplemented with ampicillin (100 mg/l) and incubated at 37° C.
Isopropyl-b-D-thiogalctopyranoside (IPTG) at 1 mM was used to induce Atwbc19 expression. Each well was filled with 199 μl LB, IPTG and varying concentrations of kanamycin or gentamycin and 50 μl bacterial treatment (DH5α transformed with pKS-ABC, DH5α transformed with pKS-nptII, DH5α transformed with pKS or none). […] Optical densities were measured at 630 nm (Biorad) after incubating microtiter plates at 37° C. for 24 hr.

[3] = tested on: Arabidopsis thaliana insertional knockout mutants; test: Root growth of Arabidopsis insertional mutants on MSO media with kanamycin; type: in vivo; settings: media with 100 mg/l kanamycin, 2 weeks
Experimental: Sequence-tagged insertional mutant lines for the three ABC transporters, Atwbc19 (SALK—107731), Atwbc18 (SALK—100187) and Atwbc16 (SALK—119868) were obtained from ABRC Arabidopsis knock-out library. Homozygosity was tested by PCR of genomic DNA using 3 primers (Table 1). Two of the primers are specific to the native gene and amplify a known fragment. The third primer is specific to the T-DNA. Where the T-DNA is inserted between the two gene specific primers, a smaller fragment is generated allowing the identification of insertion in the gene of interest. The fragment was sequenced to ensure that it mapped at the expected loci. Kanamycin resistance was assessed by growing the mutants on MSO media with and without 100 mg/l kanamycin. Stratified seeds were germinated on 4 Petri dishes with 6 plants for each line and placed vertically in a growth chamber at 25 degrees. Root length was measured after 2 weeks. To quantify NPTII protein levels, total protein was extracted from 100 mg of root and shoot tissue from seedlings germinated on MSO media for 2 weeks, with 2 replicate samples per line. An ELISA was performed using a kit according to the manufactures instructions (Agdia, Elkhart, Ind., USA).

[4] = tested on: Nicotiana tabacum cv Xanthi; test: Root growth of T1 transgenic tobacco (pS15-ABC-dKan) on media with kanamycin; type: in vivo; settings: 200 mg/l kanamycin, 3 weeks
Experimental: Segregation analysis was performed on MS media (Murashige et al., 1962) with B5 vitamins (Gamborg et al., 1968) and 3% sucrose (MSO media) containing 200 mg/l kanamycin. T1 seeds from plants transformed with pS15-ABC-dKan were surface sterilized and germinated on the media. Root growth analysis was performed as above on vertically positioned plates where 6 seeds per plate and 6 replicate plates for each event were germinated with and without 100 and 200 mg/l kanamycin. Root length was measured after 3 weeks. All experiments were performed in a 25° C. growth cabinet under constant 40 μE irradiance.

`NCC[C@H](O)C(=O)N[C@@H]1C[C@H](N)[C@@H](O[C@H]2O[C@H](CN)[C@@H](O)[C@H](O)[C@H]2O)[C@H](O)[C@H]1O[C@H]1O[C@H](CO)[C@@H](O)[C@H](N)[C@H]1O` [amikacin] was tested, and the “resistance of plants to the antibiotic” value [1] was “no resistance”.
For `O=C(N[C@H](CO)[C@H](O)c1ccc([N+](=O)[O-])cc1)C(Cl)Cl` [chloramphenicol], the “resistance of plants to the antibiotic” value [1] was “no resistance”.
For `NC[C@H]1O[C@H](O[C@H]2[C@H](O)[C@@H](O[C@H]3O[C@H](CO)[C@@H](O)[C@H](N)[C@H]3O)[C@H](N)C[C@@H]2N)[C@H](O)[C@@H](O)[C@@H]1O` [kanamycin], the “kanamycin concentrations to which Atwbc19 confers resistance” value [2] was “below 12.5 mg/l”, the “root growth (root length)” value ([3]; line SALK—100187 (Atwbc18 mutant)) was 1.82±0.25 cm and the “root growth (root length)” value ([3]; line SALK—107731 (Atwbc19 mutant)) was 0.31±0.04 cm. For the same molecule, the “root growth (root length)” value ([3]; line SALK—119868 (Atwbc16 mutant)) was 0.30±0.03 cm, the Root length ([4]; Atwbc19 transgenic event #28, T1 seeds) was 1.03±0.55 cm and the Root length ([4]; Atwbc19 transgenic event #30, T1 seeds) was 2.02±1.16 cm. It also gave a Root length ([4]; control (non-transgenic) tobacco) of 0.37±0.09 cm.
With `[H]/N=C(/N)N[C@H]1[C@H](O)[C@@H](O)[C@H](O[C@@H]2O[C@@H](C)[C@](O)(C=O)[C@H]2O[C@@H]2O[C@@H](CO)[C@H](O)[C@@H](O)[C@@H]2NC)[C@@H](N/C(N)=N\[H])[C@@H]1O` [streptomycin] the “resistance of plants to the antibiotic” value [1] was “no resistance”.
With gentamycin the “resistance of plants to the antibiotic” value [1] was “no resistance”.
